How the values were obtained:
Assay type in all cases: cell-based
[1] = target: BaF3 (EGFR-A763insFQEA) (Homo sapiens, UniProt P00533, INS763FQEA, cells depend on it); assay: Test 3: BaF3 (EGFR-A763insFQEA) cell proliferation test; details: 72 hours, Cell Titer-Glo, read-out: Test 3 - IC50
Description: Test 3: BaF3 (EGFR-A763insFOEA) Cell Proliferation Test
BaF3 (EGFR-A763insFQEA) was cultured in RPMI1640 medium containing 10% fetal bovine serum and 2 mM glutamine. The cells were grown at 37° C. in a humidified incubator with 5% CO2.
(§1) The number of viable cells in the culture was measured according to the protocol described in Promega's Cell Titer-Glo Luminescent cell Viability Assay (Promega catalog number #G7570). 90 μl of cells (3,000 cells/well) were cultured in growth medium in a Corning black transparent bottom 96-well plate, and cultured in a 5% CO2 humidified incubator at 37° C. overnight. The compound serially diluted in 100% DMSO was added to the cells using a pipette, and the cells were incubated for another 72 hours. 100 μl of the mixed Cell Titer-Glo reagent was added to the cells in the 96-well culture plate to lyse the cells and mix gently. Subsequently, the […] was detected on the Envision microplate detector to obtain the data of each compound. Finally, the data was input into a suitable software package (such as Prism) for curve fitting analysis.

[2] = target: BaF3 (EGFR-S768I) (Homo sapiens, UniProt P00533, S768I, cells depend on it); assay: Test 7: BaF3 (EGFR-S768I) cell proliferation test; details: 72 hours, Cell Titer-Glo, read-out: Test 7 - IC50
Sequence of BaF3 (EGFR-S768I) (P00533 whole entry S768I): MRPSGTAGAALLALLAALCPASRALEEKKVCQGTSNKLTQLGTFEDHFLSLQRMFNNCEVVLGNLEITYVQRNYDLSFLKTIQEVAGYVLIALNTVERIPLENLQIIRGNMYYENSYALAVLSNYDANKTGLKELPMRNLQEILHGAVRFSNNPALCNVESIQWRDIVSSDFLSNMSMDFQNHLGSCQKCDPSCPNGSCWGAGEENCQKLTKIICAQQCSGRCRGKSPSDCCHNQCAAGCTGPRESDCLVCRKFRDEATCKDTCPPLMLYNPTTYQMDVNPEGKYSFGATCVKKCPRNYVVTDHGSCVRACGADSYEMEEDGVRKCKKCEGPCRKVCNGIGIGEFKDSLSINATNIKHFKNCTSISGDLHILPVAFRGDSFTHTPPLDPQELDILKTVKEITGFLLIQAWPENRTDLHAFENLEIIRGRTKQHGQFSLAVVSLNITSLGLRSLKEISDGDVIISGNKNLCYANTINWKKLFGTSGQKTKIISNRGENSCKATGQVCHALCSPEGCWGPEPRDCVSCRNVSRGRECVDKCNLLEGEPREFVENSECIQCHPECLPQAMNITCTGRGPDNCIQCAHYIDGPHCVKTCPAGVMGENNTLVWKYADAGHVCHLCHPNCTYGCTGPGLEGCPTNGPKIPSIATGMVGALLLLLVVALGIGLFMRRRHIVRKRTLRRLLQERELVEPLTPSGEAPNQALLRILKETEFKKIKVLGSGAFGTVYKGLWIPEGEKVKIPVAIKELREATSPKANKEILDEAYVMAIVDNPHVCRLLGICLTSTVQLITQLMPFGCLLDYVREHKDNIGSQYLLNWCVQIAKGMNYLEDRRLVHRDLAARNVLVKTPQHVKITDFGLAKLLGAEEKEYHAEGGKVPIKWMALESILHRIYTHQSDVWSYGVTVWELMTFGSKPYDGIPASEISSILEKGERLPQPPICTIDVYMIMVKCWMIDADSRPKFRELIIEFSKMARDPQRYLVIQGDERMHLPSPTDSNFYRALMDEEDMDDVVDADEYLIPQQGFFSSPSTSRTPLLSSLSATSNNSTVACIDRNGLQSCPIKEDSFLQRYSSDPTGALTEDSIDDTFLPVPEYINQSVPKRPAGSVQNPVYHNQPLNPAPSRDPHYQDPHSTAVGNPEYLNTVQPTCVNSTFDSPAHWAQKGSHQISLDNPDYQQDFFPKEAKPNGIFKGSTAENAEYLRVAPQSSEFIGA
Description: Test 7: BaF3 (EGFR-S768I) Cell Proliferation Test
BaF3 (EGFR-S768I) was cultured in RPMI1640 medium containing 10% fetal bovine serum and 2 mM glutamine. The cells were grown at 37° C. in a humidified incubator with 5% CO2.
as §1

[3] = target: BaF3 (HER2-A775insYVMA) (Homo sapiens, UniProt P04626, DUP772-775, cells depend on it); assay: Test 9: BaF3 (HER2-A775insYVMA) cell proliferation test; details: 72 hours, Cell Titer-Glo, read-out: Test 9 - IC50
Sequence of BaF3 (HER2-A775insYVMA) (P04626 with tags, fused parts or gaps DUP772-775): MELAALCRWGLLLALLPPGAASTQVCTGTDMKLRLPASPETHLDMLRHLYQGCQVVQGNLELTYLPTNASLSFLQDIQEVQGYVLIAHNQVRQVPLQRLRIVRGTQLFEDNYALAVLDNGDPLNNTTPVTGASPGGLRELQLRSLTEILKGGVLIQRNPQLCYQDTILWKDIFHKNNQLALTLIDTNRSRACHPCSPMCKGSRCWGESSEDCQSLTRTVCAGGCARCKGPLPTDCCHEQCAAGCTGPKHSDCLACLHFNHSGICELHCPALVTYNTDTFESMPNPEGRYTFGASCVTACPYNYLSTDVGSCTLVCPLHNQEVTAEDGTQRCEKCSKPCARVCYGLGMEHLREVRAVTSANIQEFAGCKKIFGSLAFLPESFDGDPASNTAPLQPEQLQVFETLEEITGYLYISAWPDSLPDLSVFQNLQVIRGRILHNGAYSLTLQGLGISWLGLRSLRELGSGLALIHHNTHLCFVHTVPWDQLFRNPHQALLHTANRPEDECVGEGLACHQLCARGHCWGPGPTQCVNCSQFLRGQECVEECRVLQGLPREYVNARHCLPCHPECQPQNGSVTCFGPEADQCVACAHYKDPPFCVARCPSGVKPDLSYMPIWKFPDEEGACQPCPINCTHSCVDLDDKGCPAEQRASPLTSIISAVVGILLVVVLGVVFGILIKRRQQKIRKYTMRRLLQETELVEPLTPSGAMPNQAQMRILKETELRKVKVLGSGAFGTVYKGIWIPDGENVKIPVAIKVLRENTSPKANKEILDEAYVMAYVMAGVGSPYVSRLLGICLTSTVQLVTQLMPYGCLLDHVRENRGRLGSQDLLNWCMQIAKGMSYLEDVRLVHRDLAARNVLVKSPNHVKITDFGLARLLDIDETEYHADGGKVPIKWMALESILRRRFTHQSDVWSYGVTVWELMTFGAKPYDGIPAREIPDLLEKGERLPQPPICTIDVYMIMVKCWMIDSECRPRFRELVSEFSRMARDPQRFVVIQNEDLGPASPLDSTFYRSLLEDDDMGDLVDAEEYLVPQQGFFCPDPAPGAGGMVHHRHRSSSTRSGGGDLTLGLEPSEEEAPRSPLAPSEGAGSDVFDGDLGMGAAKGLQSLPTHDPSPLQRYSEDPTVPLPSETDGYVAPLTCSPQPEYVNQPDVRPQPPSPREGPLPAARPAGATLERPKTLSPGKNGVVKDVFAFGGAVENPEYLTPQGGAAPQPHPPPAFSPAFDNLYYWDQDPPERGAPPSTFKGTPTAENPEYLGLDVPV
Description: Test 9: BaF3 (HER2-A775insYVMA) Cell Proliferation Test
BaF3 (HER2-A775insYVMA) was cultured in RPMI1640 medium containing 10% fetal bovine serum and 2 mM glutamine. The cells were grown at 37° C. in a humidified incubator with 5% CO2.
as §1

[4] = target: BaF3 (HER2-P780insGSP) (Homo sapiens, UniProt P04626, DUP778-780, cells depend on it); assay: Test 10: BaF3 (HER2-P780insGSP) cell proliferation test; details: 72 hours, Cell Titer-Glo, read-out: Test 10 - IC50
Sequence of BaF3 (HER2-P780insGSP) (P04626 with tags, fused parts or gaps DUP778-780): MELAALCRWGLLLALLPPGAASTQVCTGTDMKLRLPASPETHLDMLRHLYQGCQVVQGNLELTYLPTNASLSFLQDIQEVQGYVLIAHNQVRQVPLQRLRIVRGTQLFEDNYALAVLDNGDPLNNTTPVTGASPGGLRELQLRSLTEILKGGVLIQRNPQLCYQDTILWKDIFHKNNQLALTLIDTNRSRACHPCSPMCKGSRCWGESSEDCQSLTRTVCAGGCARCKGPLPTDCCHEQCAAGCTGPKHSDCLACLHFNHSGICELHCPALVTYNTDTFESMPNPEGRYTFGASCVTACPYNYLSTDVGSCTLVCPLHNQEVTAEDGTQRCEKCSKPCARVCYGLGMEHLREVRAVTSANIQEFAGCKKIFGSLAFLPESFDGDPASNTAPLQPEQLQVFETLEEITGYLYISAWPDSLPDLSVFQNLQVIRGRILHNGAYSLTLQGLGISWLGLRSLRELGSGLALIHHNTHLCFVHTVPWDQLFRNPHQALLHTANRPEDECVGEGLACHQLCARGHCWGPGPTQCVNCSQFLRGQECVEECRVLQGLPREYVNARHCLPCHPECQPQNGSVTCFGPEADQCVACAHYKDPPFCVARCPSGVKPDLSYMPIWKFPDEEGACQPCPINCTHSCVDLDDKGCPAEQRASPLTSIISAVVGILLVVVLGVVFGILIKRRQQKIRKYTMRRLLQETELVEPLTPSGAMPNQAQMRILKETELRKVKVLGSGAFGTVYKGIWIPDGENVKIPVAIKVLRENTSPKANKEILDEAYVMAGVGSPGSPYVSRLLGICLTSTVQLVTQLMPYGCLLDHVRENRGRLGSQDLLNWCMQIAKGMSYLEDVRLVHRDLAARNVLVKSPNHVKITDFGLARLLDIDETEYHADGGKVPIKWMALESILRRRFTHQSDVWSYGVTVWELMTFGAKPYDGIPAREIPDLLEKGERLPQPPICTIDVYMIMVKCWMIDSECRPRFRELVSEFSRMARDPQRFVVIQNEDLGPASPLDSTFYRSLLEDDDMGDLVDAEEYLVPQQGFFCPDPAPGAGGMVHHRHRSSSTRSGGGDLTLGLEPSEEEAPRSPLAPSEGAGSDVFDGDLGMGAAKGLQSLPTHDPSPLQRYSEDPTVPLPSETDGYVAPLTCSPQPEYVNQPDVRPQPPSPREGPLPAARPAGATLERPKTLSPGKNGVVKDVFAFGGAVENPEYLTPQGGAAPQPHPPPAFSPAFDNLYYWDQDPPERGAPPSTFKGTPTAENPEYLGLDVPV
Description: Test 10: BaF3 (HER2-P780insGSP) Cell Proliferation Test
BaF3 (HER2-P780insGSP) was cultured in RPMI1640 medium containing 10% fetal bovine serum and 2 mM glutamine. The cells were grown at 37° C. in a humidified incubator with 5% CO2.
as §1

Sequence of BaF3 (EGFR-A763insFQEA) (P00533 with tags, fused parts or gaps INS763FQEA): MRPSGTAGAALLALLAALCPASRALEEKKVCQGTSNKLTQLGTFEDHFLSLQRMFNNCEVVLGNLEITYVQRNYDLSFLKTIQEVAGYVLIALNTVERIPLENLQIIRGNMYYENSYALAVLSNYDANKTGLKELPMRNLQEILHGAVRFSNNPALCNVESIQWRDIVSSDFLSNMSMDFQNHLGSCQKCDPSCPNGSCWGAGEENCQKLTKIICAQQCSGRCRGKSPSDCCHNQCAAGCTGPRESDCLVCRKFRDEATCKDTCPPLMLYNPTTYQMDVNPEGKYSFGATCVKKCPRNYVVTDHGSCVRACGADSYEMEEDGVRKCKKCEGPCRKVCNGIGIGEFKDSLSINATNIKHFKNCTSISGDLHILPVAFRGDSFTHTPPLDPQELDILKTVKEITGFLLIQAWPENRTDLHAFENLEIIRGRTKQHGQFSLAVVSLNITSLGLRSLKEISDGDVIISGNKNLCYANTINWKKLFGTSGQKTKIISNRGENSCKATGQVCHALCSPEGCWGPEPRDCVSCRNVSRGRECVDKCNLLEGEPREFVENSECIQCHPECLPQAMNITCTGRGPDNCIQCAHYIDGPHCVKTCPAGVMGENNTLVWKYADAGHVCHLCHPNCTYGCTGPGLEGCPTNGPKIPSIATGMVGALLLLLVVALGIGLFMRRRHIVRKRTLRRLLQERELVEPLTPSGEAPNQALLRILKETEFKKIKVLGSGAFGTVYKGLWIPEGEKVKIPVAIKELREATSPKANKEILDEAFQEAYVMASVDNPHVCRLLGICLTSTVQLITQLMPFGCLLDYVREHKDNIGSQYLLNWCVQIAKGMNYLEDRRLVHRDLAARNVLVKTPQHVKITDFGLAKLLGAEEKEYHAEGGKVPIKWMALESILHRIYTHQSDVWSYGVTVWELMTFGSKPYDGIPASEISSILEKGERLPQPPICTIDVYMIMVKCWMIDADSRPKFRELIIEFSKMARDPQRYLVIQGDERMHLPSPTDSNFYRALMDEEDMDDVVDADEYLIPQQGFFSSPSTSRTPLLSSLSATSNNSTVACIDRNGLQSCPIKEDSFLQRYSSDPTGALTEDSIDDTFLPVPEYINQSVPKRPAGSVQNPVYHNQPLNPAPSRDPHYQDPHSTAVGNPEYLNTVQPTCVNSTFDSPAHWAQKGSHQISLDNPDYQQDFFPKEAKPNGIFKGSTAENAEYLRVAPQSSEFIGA

SMILES | GI50 [1] | GI50 [2] | GI50 [3] | GI50 [4]
C=CC(=O)Nc1cc(Nc2ncnc(-c3cn(C)c4ccc(F)cc34)n2)c(OC)cc1N(C)CCN(C)C [Example 11] | 9.45 nM | 38.1 nM | 14.2 nM | 8.76 nM
C=CC(=O)Nc1cc(Nc2ncnc(-c3cn(C)c4ccc(F)cc34)n2)c(OC(F)F)cc1N(C)CCN(C)C [Example 14, N-(4-(difluoromethoxy)-2-((2-(dimethylamino)ethyl)(methyl)amino)-5-((4-(5-fluoro-1-methyl-1H-indol-3-yl)-1,3,5-triazin-2-yl)amino)phenyl)acrylamide] | 7.6 nM | 8.91 nM | 12.4 nM | 6.92 nM
C=CC(=O)Nc1cc(Nc2ncnc(-c3cn(C)c4ccc(F)cc34)n2)c(OCC(F)(F)F)cc1N(C)CCN(C)C [Example 15, N-(2-((2-(dimethylamino)ethyl)(methyl)amino)-5-((4-(5-fluoro-1-methyl-1H-indol-3-yl)-1,3,5-triazin-2-yl)amino)-4-(2,2,2-trifluoroethoxy)phenyl)acrylamide] | 14 nM | 7.41 nM | 10.8 nM | 6.58 nM

Source: patent US12258344B2, “Azaaromatic amide derivatives for the treatment of cancer” (SHENZHEN FORWARD PHARMACEUTICALS CO., LTD., priority 2019, dated 2025)
